# Experiments:
# [1] = tested on: primary oligodendrocyte cultures; test: CID-induced cell death in primary oligodendrocyte cultures transduced with iCP9 virus; format: cell-based, rat; conditions: CID 10 nM; iCP9-expressing primary oligodendrocyte cultures; fluorescent microscope and Methylene Blue viability staining
# Experimental: To induce timely cell death. Collected virus was used to transduce primary oligodendrocyte cultures that have been established. Cells were cultured and evaluated using fluorescent microscopy for the expression of GFP. The extent of GFP positive cells correlated with the viral infection efficacy. Cell protein isolation was conducted and protein isolates were subjected to Western blot transfer to detect stable expression of the iCP9 protein. The resultant membrane was probed with anti-caspase 9 antibody (R&D Systems Inc. #AF8301). Once the stable expression of iCP9 was confirmed at the protein level with Western blot techniques, the CID was applied to these cells in culture at a 10 nM concentration. […] Cell death was detected by viewing cultures under the fluorescent microscope and by using Methylene Blue (Sigma) viability staining of cells in culture after exposure to the CID. All experiments were run in parallel using the astrocyte-derived U87 cell line as a negative control.
# Establish primary oligodendrocyte cultures. […] The status of cellular differentiation was monitored by noting the change in cellular morphology in culture. […]
# Once this system and differentiation pattern was confirmed, A2B5^+ primary cell cultures were cultured in pΔmbpICP9/mEGFP viral supernatant for 8 hours. […] Infected cells expressed EGFP and were readily identified using the proper fluorescent filter system. […]
# [2] = tested on: 293T cells; test: CID-induced apoptosis in 293T cells transfected with iCP9 lentivirus or control virus; format: cell-based
# Experimental: (§1) EGFP is also produced from the same viral plasmid and promoter. […] However, cells not transfected with virus (EGFP negative) persisted in culture. […] A Cell Death Detection ELISA Plus (Roche Inc) was also performed to determine the level of apoptosis in culture after cells infected with various dilutions of virus were exposed to CID.
# [3] = tested on: cells infected with virus encoding iCP9; test: Cell Death Detection ELISA Plus after virus dilutions and CID; format: cell-based; conditions: various dilutions of iCP9 virus, 4 hours after CID
# Experimental: FIG. 6 is a graph showing cells exposed to various dilutions of virus encoding the iCP9 gene and then CID was added to the culture media. 4 hours later, Apoptosis ELISA was performed. […] Thus apoptosis correlated with iCP9 gene expression. X-axis is virus dilution. Y-axis is ELISA absorption at 405 nm.
# as §1
# [4] = tested on: MBP+ cells (oligodendrocytes); test: Mixed cortical cultures infected with pLpMBP(iCP9)MG and exposed to CID; format: cell-based, rat
# Experimental: High density mixed cortical cultures were established after isolation of cerebral cortices from 3 Fischer rats as previously described. Cerebral cortices were removed and place in ice-cold Hanks' balanced salt solution, centrifuged and digested with trypsin at 37° for 10 minutes. Tissue was centrifuged and resuspended in minimal essential medium with Earle's salt (Invitrogen) containing heat-inactivated fetal bovine serum and horse serum. Cell suspension was passed through cell strainers and plated. After three hours the medium is changed to Neurobasal medium supplemented with B27 MinusAO (Invitrogen). Cultures were maintained for seven days and then immunohistochemical staining was performed to verify the composition of the cultures.
# The mixed primary cortical cultures (consisting of all CNS cell types) were infected with pLpMBP(iCP9)MG and exposed to CID and then analyzed for cell death of oligodendrocytes (MBP+ cells). The MBP promoter was designed to induce cell death only in MBP+ cells, the majority of which are mature oligodendrocytes.
# [5] = tested on: GFAP+ cells (astrocytes); test: Pan purified GFAP+ cultures infected with pLpGFAP(iCP9)MG and exposed to CID; format: cell-based; conditions: 4 hours after CID
# From the text: To test the specificity of the GFAP promoter system, GFAP+ pan purified cultures (cultures of purified astrocytes) were transfected with pLpGFAP(iCP9)MG and exposed to CID.
# [6] = tested on: A2B5+ cells; test: Mixed cortical cultures infected with pLpPDGFR(iCP9)MG and exposed to CID; format: cell-based, rat; conditions: four hours after CID, loss of viable cell morphology
# From the text: To confirm the cell specificity of the PDGFR-α promoter system, rat-derived primary cortical cultures were infected with pLpPDGFR(iCP9)MG virus. […] This provides data supporting the oligoprecursor-specificity of the PDGFR-α promoter system.
# [7] = tested on: GFAP+ cells (astrocytes); test: pLpGFAP(iCP9)MG injected into corpus callosum, then CID into ipsilateral ventricle; format: in vivo, rat; conditions: 24 hours after CID
# Experimental: The system was tested in vivo to ensure that cell specific apoptosis could be induced and the timing of cell ablation controlled as it was in vitro. To this end, virus was injected into the corpus callosum of adult Fischer rats and then three weeks later CID was administered into the ipsilateral ventricle. Rats were sacrificed 24-hours thereafter, brains removed in whole, fixed and cyrosectioned for analysis. […] The TUNEL (TdT-mediated dUTP-X nick end-labeling) system adds a tag on to DNA that has been fragmented during the apoptosis cascade allowing for labeling using standard immunohistochemistry. Thin sections derived from control rats receiving glycerol rather than CID were TUNEL negative. Consecutive thin sections were then stained with anti-GFAP antibody to identify astrocytes. […] This confirmed that in vivo the iCP9 system induces apoptosis only after CID administration and effectively ablates GFAP+ astrocytes.
# [8] = tested on: oligodendrocytes (MBP staining cells); test: pLpMBP(iCP9)MG injected into corpus callosum, then CID; format: in vivo, rat; conditions: after CID
# [9] = tested on: infected region of the CNS; test: pΔmbpICP9/mEGFP virus applied to the CNS, then intraperitoneal CID; format: in vivo, rat; conditions: CID via intraperitoneal injection after virus injection
# Experimental: The virus described above, pΔmbpICP9/mEGFP, which contains the inducible caspase 9 sequence was applied to the CNS of adult rats to create an in vivo model of CNS demyelination. Administration of the viral vector allowed effective transfer of genetic information in a variable area of parenchyma based on the rate of administration (convective distribution) and viral titer. […] First, adult Fischer rats were anaesthetized by intraperitoneal injection of ketamine hydrochloride (80 mg/kg) and xylazine ([…]) and placed in a stereotactic frame. A midline scalp incision is made. Access to brain parenchyma was accomplished by placement of a right-sided burr hole through the skull, at various predetermined coordinates depending on the desired location of the lesion. […] The volume of viral vector (e.g., lentivirus) delivered depends upon the infection efficacy as determined herein and the target area size. After injection, the needle is left in place for five minutes and then slowly withdrawn over the next four minutes. The skin was closed with sutures.
# For virus administration to the spinal cord an incision was made in the thoracic spine followed by a lamenectomy to expose the spinal cord. A No. 32S-gauge needle was passed into the posterior column at predetermined coordinates.
# [10] = tested on: primary oligodendrocyte cultures; conditions: pΔmbpICP9/mEGFP virus; based on published data in other cell types (Straathof et al., 2005); cited from earlier work
structure (smiles),measurement,setting,value
CC[C@H](C(=O)N1CCCC[C@H]1C(=O)O[C@H](CCc1ccc(OC)c(OC)c1)c1cccc(OCC(=O)NCC(CNC(=O)COc2cccc([C@@H](CCc3ccc(OC)c(OC)c3)OC(=O)[C@@H]3CCCCN3C(=O)[C@@H](CC)c3cc(OC)c(OC)c(OC)c3)c2)CN(C)C)c1)c1cc(OC)c(OC)c(OC)c1 [CID],cell death of infected cells,[1],induced the cellular death of infected cells
same,apoptosis of EGFP-positive cells after CID,"[2]; 293T cells, pLpCMV(iCP9)MG virus",rapidly underwent apoptosis
same,"EGFP-positive cells after CID, control virus",[2]; cultures transfected with control virus pLpCMVXMG,EGFP-positive cells persisted
same,apoptosis level (ELISA absorption at 405 nm),[3],Apoptosis levels decreased with dilution of virus
same,"morphology of A2B5/EGFP, GFAP/EGFP and O4/EGFP positive cells",[4]; non-target cell types,appeared morphologically normal before and after CID exposure
same,"morphology of MBP-positive, EGFP-positive cells after CID",[4]; relative to cells not exposed to CID,appeared disrupted
same,EGFP positive cells after CID,[5],a decrease in EGFP positive cells
same,apoptosis of A2B5+ cells,[6],identified undergoing apoptosis
same,anti-GFAP staining at area of viral infection,[7],GFAP+ cells were not detected at the area of viral infection
same,TUNEL staining,[7]; glycerol controls TUNEL negative,TUNEL positive staining at the site of virus infection
same,anti-MBP staining at site of infection,[8]; glycerol controls normal,failed to stain with anti-MBP antibody at the site of infection
same,TUNEL positive cells,[8]; not in glycerol controls,TUNEL positive cells were identified at the site of infection
same,apoptosis of infected CNS region,[9],resulting in apoptosis of the infected region of the CNS
same,time to cell death of oligodendrocytes after CID,[10],4 to 6 h

# Source: US8704037B2, “Targeted cell death” (priority 2007, dated 2014)
